From patent US6022969A, “Compositions and methods for treating mast-cell mediated conditions” (AXYS Pharmaceuticals, Inc., priority 1995, dated 2000) come the findings set out here.

This test deals with tryptase. In words: In vitro tryptase inhibition assay (hydrolysis of tosyl-Gly-Pro-Lys-p-nitroanilide). It counts as biochemical, human. To be noted: tosyl-Gly-Pro-Lys-p-nitroanilide 0.5 mM, pH 8.2, 1 h pre-incubation, room temperature. As to the method:
The compounds to be assayed (approximately 1 mg) were dissolved in 200 μL dimethylsulfoxide (DMSO) and diluted 1:10 into buffer containing 50 millimolar (mM) Tris-HCl (pH 8.2), 100 mM sodium chloride, and 0.05% polyoxyethylenesorbitan monolaurate (Tween-20®, available from Sigma, St. Louis, Mo.). Seven additional threefold dilutions were made from the initial dilution into the same buffer supplemented with 10% DMSO. Aliquots (50 microliters, μL) from each of the eight dilutions in the series were transferred to individual wells in a 96-well U-bottom microtiter plate. 25 μL of a stock solution of tryptase was added to each well and the samples were mixed and incubated for one hour at room temperature (tryptase was purified from human lung and skin tissue preparations, HMC-1 (human mast cell line) and also obtained from commercial sources (ICN Biomedicals, Irvine, Calif.; Athens Research & Technology, Athens, Ga.)). […] The tryptase solution was prepared by placing 60 μg/mL of tryptase into solution with 10 mM MES (2-[N-Morpholino]ethane sulfonic acid) containing 2 mM CaCl2, 20% glycerol and 50 μg/mL heparin. The enzyme reaction was initiated with the addition of the synthetic tripeptide substrate, tosyl-Gly-Pro-Lys-p-nitroanilide (available from Sigma, 25 μL; 0.5 mM final concentration).
However, Ki ' varies with the enzyme concentration used in the enzyme assay. […] The y-intercept of a replot of IC50 (ordinate) versus tryptase concentration (abscissa) produces a value for Ki '.
The inhibition constants (Ki ', micromolar (μM)) were determined for the compounds of the present invention.
With “trans-1,4-cyclohexylene bis[4-(4-guanidinobenzylcarbamoyl)-1-piperazinecarboxaldehyde] [Compound 21]”, the affinity, expressed as Ki, was 60.9 nM.

In turn, `N=C(N)Nc1ccc(CNC(=O)N2CCN(C(=O)OC3COC4C(OC(=O)N5CCN(C(=O)NCc6ccc(NC(=N)N)cc6)CC5)COC34)CC2)cc1` (stereo not drawn) [Compound 29, cis-2,6-(4,8-dioxabicyclo[3.3.0]octylene)bis[4-(4-guanidinobenzylcarbamoyl)-1-piperazinecarboxylate]] registered a Ki of 3.8 nM.

The molecule `NCc1ccc(CNC(=O)N2CCN(C(=O)O[C@H]3CCC[C@@H](OC(=O)N4CCN(C(=O)NCc5ccc(CN)cc5)CC4)CCC3)CC2)cc1` [Compound 13, cis-1,5-cyclooctylene bis[4-(4-aminomethylbenzylcarbamoyl)-1-piperazinecarboxylate]] registered a Ki of 0.13 nM.

`NC[C@H]1CC[C@H](CNC(=O)OC2CCN(C(=O)O[C@H]3CCC[C@@H](OC(=O)N4CCC(OC(=O)NC[C@H]5CC[C@H](CN)CC5)CC4)CCC3)CC2)CC1` [Compound 43, cis-1,5-cyclooctylene bis[4-(trans-4-aminomethylcyclohexylmethylaminoformyloxy)-1-piperidinecarboxylate]] came in with a Ki of 1450 nM.

`NCCc1ccc(C(=O)N2CCN(C(=O)O[C@H]3CCC[C@@H](OC(=O)N4CCN(C(=O)c5ccc(CCN)cc5)CC4)CCC3)CC2)cc1` [Compound 17, cis-1,5-cyclooctylene bis{4-[4-(2-aminoethyl)benzoyl]-1-piperazinecarboxylate]]: the Ki stood at 4.9 nM.

As to `N=C(N)N1CCC(CC(=O)N2CCN(C(=O)O[C@H]3CCC[C@@H](OC(=O)N4CCN(C(=O)CC5CCN(C(=N)N)CC5)CC4)CCC3)CC2)CC1` [Compound 7, cis-1,5-cyclooctylene bis{[4-(1-amidinopiperid-4-ylacetyl)-1-piperazinecarboxylate]}], the inhibition constant Ki turned out to be 5 nM.

In turn, `N=C(N)N1CCC(CCC(=O)N2CCN(C(=O)O[C@H]3CCC[C@@H](OC(=O)N4CCN(C(=O)CCC5CCN(C(=N)N)CC5)CC4)CCC3)CC2)CC1` [Compound 5, cis-1,5-cyclooctylene bis{4-[3-(1-amidinopiperid-4-yl)propionoyl]-1-piperazinecarboxylate}] came in with a Ki of 2 nM.

`N=C(N)N1CCC(CNC(=O)N2CCN(C(=O)O[C@H]3CCC[C@@H](OC(=O)N4CCN(C(=O)NCC5CCN(C(=N)N)CC5)CC4)CCC3)CC2)CC1` [Compound 27, cis-1,5-cyclooctylene bis[4-(1-amidinopiperid-4-ylmethylcarbamoyl)-1-piperazinecarboxylate]] had an inhibitory constant (Ki) of 614 nM.

In the case of `N=C(N)N1CCC(CCNC(=O)N2CCN(C(=O)O[C@H]3CCC[C@@H](OC(=O)N4CCN(C(=O)NCCC5CCN(C(=N)N)CC5)CC4)CCC3)CC2)CC1` [Compound 8, cis-1,5-cyclooctylene bis{4-[2-(1-amidinopiperid-4-yl)ethylcarbamoyl]-1-piperazinecarboxylate}], the Ki amounted to 30 nM.

In the case of `N=C(N)Nc1ccc(CNC(=O)N2CCN(C(=O)O[C@H]3CCC[C@@H](OC(=O)N4CCN(C(=O)NCCCCCN)CC4)CCC3)CC2)cc1` [Compound 50, cis-5-[4-(5-aminopentylcarbamoyl)piperazin-1-ylformyloxy]cyclooctyl 4-(4-guanidinobenzylcarbamoyl)-1-piperazinecarboxylate], the Ki amounted to 0.45 nM.

Molecule `NCCC=CCNC(=O)N1CCN(C(=O)O[C@H]2CCC[C@@H](OC(=O)N3CCN(C(=O)NCC=CCCN)CC3)CCC2)CC1` [Compound 36, cis-1,5-cyclooctylene bis[4-(5-amino-2-pentenylcarbamoyl)-1-piperazinecarboxylate]] came in with a Ki of 125 nM.

Turning to `NCCCCNC(=O)N1CCN(C(=O)O[C@H]2CCC[C@@H](OC(=O)N3CCN(C(=O)NCCCCN)CC3)CCC2)CC1` [Compound 37, cis-1,5-cyclooctylene bis[4-(4-aminobutylcarbamoyl)-1-piperazinecarboxylate]], the Ki is 508 nM.

The molecule `NCCCCCCNC(=O)N1CCN(C(=O)O[C@H]2CCC[C@@H](OC(=O)N3CCN(C(=O)NCCCCCCN)CC3)CCC2)CC1` [Compound 35, cis-1,5-cyclooctylene bis[4-(6-aminohexylcarbamoyl)-1-piperazinecarboxylate]] yielded an inhibition constant (Ki) of 1440 nM.

For `NC[C@H]1CC[C@H](CNC(=O)N2CCCN(C(=O)O[C@H]3CCC[C@@H](OC(=O)N4CCCN(C(=O)NC[C@H]5CC[C@H](CN)CC5)CC4)CCC3)CC2)CC1` [Compound 12, cis-1,5-cyclooctylene bis[4-(trans-4-aminomethylcyclohexylmethylcarbamoyl)-1-(perhydro-7H-1,4-diazepine)carboxylate]], the inhibition constant (Ki) stood at 260 nM.

Molecule `N=C(N)c1ccc(CNC(=O)N2CCN(C(=O)O[C@H]3CCC[C@@H](OC(=O)N4CCN(C(=O)NCc5ccc(C(=N)N)cc5)CC4)CCC3)CC2)cc1` [Compound 28, cis-1,5-cyclooctylene bis[4-(4-amidinobenzylcarbamoyl)-1-piperazinecarboxylate}] registered an inhibition constant (Ki) of 8.7 nM.

`NC[C@H]1CC[C@H](CNC(=O)N2CCN(C(=O)OC[C@H]3CC[C@H](COC(=O)N4CCN(C(=O)NC[C@H]5CC[C@H](CN)CC5)CC4)CC3)CC2)CC1` [Compound 42, trans-1,4-cyclohexylenedimethylene bis[4-(trans-4-aminomethylcyclohexylmethylcarbamoyl)-1-piperazinecarboxylate]] came in with a Ki of 64 nM.

`NCC1CCN(C(=O)NCC2CCN(C(=O)OC[C@H]3CC[C@H](COC(=O)N4CCC(CNC(=O)N5CCC(CN)CC5)CC4)CC3)CC2)CC1` [Compound 23, trans-1,4-cyclohexylenedimethylene bis{4-[4(aminomethyl)piperid-1-ylcarbonylaminomethyl]-1-piperidinecarboxylate}] came in with a Ki of 119 nM.

In turn, `N=C(N)Nc1ccc(CC(=O)N2CCN(C(=O)O[C@H]3CCC[C@@H](OC(=O)N4CCN(C(=O)Cc5ccc(NC(=N)N)cc5)CC4)CCC3)CC2)cc1` [Compound 10, cis-1,5-cyclooctylene bis[4-(4-guanidinophenylacetyl)-1-piperazinecarboxylate]] registered a Ki of 0.47 nM.

Take `N=C(N)c1ccc(CC(=O)N2CCN(C(=O)O[C@H]3CCC[C@@H](OC(=O)N4CCN(C(=O)Cc5ccc(C(=N)N)cc5)CC4)CCC3)CC2)cc1` [Compound 24, cis-1,5-cyclooctylene bis[4-(4-amidinophenylacetyl)-1-piperazinecarboxylate)]: the Ki was 0.16 nM.

`N=C(N)Nc1ccc(CNC(=O)N2CCN(C(=O)O[C@H]3CCC[C@@H](OC(=O)N4CCN(C(=O)NCCCCCCN)CC4)CCC3)CC2)cc1` [Compound 54, cis-5-[4-(6-aminohexylcarbamoyl)piperazin-1-ylformyloxy]cyclooctyl 4-(4-guanidinobenzylcarbamoyl)-1-piperazinecarboxylate] gave a Ki of 20 nM.

In turn, `N=C(N)Nc1ccc(CNC(=O)N2CCN(C(=O)O[C@H]3CCC[C@@H](OC(=O)N4CCN(C(=O)NC[C@H]5CC[C@H](CN)CC5)CC4)CCC3)CC2)cc1` [Compound 52] registered a Ki of 0.48 nM.

In the case of `N=C(N)Nc1ccc(CNC(=O)N2CCN(C(=O)OCC34CC5CC(C3)CC(COC(=O)N3CCN(C(=O)NCc6ccc(NC(=N)N)cc6)CC3)(C5)C4)CC2)cc1` [Compound 31, cis-1,5-tetracyclo[3.3.1.1^3,7]decylenedimethylene bis[4-(4-guanidinobenzylcarbamoyl)-1-piperazinecarboxylate]], the Ki is 26.6 nM.

The Ki is the equilibrium dissociation constant of an inhibitor or competing ligand from its target. The low end stands for a stronger hold on the target, the high end for a looser hold on the target.
